Experimental data published in patent US20120065066A1, “NOVEL HERBICIDES” (SYNGENTA CROP PROTECTION LLC, priority 2009, published 2012).

Experiments:
Assay type in all cases: in vivo
Conditions in all cases: 312 h, evaluated after 13 days, 100=total damage to plant, 0=no damage to plant
[1] = test system: Echinochloa crus-galli (ECHCG); assay: Test Example B, pre-emergence herbicidal test
Protocol: (§1) Seeds of a variety of test species were sown in standard soil in pots. After cultivation for one day (pre-emergence) or after 8 days cultivation (post-emergence) under controlled conditions in a glasshouse (at 24/16° C., day/night; 14 hours light; 65% humidity), the plants were sprayed with an aqueous spray solution derived from the formulation of the technical active ingredient in acetone/water (50:50) solution containing 0.5% Tween 20 (polyoxyethelyene sorbitan monolaurate, CAS RN 9005-64-5). The test plants were then grown in a glasshouse under controlled conditions in a glasshouse (at 24/16° C., day/night; 14 hours light; 65% humidity) and watered twice daily. After 13 days for pre and post-emergence, the test was evaluated (100=total damage to plant; 0=no damage to plant). Test Plants: Setaria faberi (SETFA), Alopecurus myosuroides (ALOMY), Echinochloa crus-galli (ECHCG), and Avena fatua (AVEFA).

[2] = test system: Alopecurus myosuroides (ALOMY); assay: Test Example B, pre-emergence herbicidal test
Protocol: as §1

[3] = test system: Avena fatua (AVEFA); assay: Test Example B, pre-emergence herbicidal test
Protocol: as §1

[4] = test system: Echinochloa crus-galli (ECHCG); assay: Test Example B, post-emergence herbicidal test
Protocol: as §1

[5] = test system: Alopecurus myosuroides (ALOMY); assay: Test Example B, post-emergence herbicidal test
Protocol: as §1

[6] = test system: Avena fatua (AVEFA); assay: Test Example B, post-emergence herbicidal test
Protocol: as §1

Structure (SMILES) | pest or weed control at 250 g/ha [1] [%] | pest or weed control at 250 g/ha [2] [%] | pest or weed control at 250 g/ha [3] [%] | pest or weed control at 250 g/ha [4] [%] | pest or weed control at 250 g/ha [5] [%] | pest or weed control at 250 g/ha [6] [%]
CCc1ccc(-c2ccc(Cl)c(F)c2)cc1C1=C(O)[C@H]2[C@H]3CC[C@H](CC3)[C@H]2C1=O [Compound T18] | 90 | 50 | 50 | 100 | 100 | 100
CCc1ccc(-c2c(F)cc(Cl)cc2Cl)cc1C1=C(O)[C@H]2[C@H]3CC[C@H](C3)[C@H]2C1=O [Compound T38] | 80 | 0 | 0 | 90 | 30 | 40
CCc1ccc(-c2ccc(Cl)s2)cc1C1=C(O)[C@H]2[C@H]3CC[C@H](CC3)[C@H]2C1=O [Compound T17] | 100 | 80 | 90 | 90 | 40 | 50
Cc1ccc(-c2ccc(Cl)cc2)cc1C1=C(O)[C@H]2[C@H]3CC[C@H](CC3)[C@H]2C1=O [Compound T4] | 100 | 50 | 70 | 100 | 70 | 80
CCc1ccc(-c2ccc(Cl)nc2)cc1C1=C(O)[C@H]2[C@H]3CC[C@H](C3)[C@H]2C1=O [Compound T36] | 80 | 30 | 40 | 50 | 0 | 20
CCc1ccc(-c2ccc(Cl)cc2)cc1C1=C(O)[C@H]2[C@H]3CC[C@H](C3)[C@H]2C1=O (racemic) [Compound T1, rac-(3aR,4R,7S,7aS)-2-(4′-chloro-4-ethylbiphenyl-3-yl)hexahydro-4,7-methanoindene-1,3-dione] | 100 | 70 | 100 | 100 | 90 | 100
CCc1ccc(-c2c(F)cc(Cl)cc2Cl)cc1C1=C(O)[C@H]2[C@H]3CC[C@H](CC3)[C@H]2C1=O [Compound T42] | 0 | 0 | 0 | 80 | 0 | 40
CCc1ccc(-c2ccc(Cl)c(F)c2F)cc1C1=C(O)[C@H]2[C@H]3CC[C@H](C3)[C@H]2C1=O [Compound T40] | 100 | 50 | 60 | 100 | 90 | 90
CCc1ccc(-c2ccc(Cl)c(C(F)(F)F)c2)cc1C1=C(O)[C@H]2[C@H]3CC[C@H](C3)[C@H]2C1=O [Compound T33] | 100 | 20 | 30 | 90 | 70 | 70
CCc1ccc(-c2ccc(Cl)c(F)c2Cl)cc1C1=C(O)[C@H]2[C@H]3CC[C@H](C3)[C@H]2C1=O [Compound T39] | 100 | 40 | 70 | 100 | 70 | 50
CCc1ccc(-c2ccc(Cl)cc2F)cc1C1=C(O)[C@H]2[C@H]3CC[C@H](CC3)[C@H]2C1=O (racemic) [Compound T10, rac-(3aR,7aS)-2-(4′-chloro-4-ethyl-2′-fluorobiphenyl-3-yl)hexahydro-4,7-ethanoindene-1,3-dione] | 90 | 0 | 0 | 90 | 0 | 0
CCc1ccc(-c2ccc(Cl)c(Cl)c2F)cc1C1=C(O)[C@H]2[C@H]3CC[C@H](C3)[C@H]2C1=O [Compound T41] | 50 | 0 | 0 | 90 | 0 | 60
CCc1ccc(-c2ccc(Cl)cc2C)cc1C1=C(O)[C@H]2[C@H]3CC[C@H](CC3)[C@H]2C1=O [Compound T12] | 100 | 60 | 20 | 100 | 90 | 40
CCc1ccc(-c2ccc(F)cc2)cc1C1=C(O)[C@H]2[C@H]3CC[C@H](CC3)[C@H]2C1=O [Compound T46] | 80 | 20 | 0 | 100 | 50 | 30
CCc1ccc(-c2ccc(Cl)c(F)c2F)cc1C1=C(O)[C@H]2[C@H]3CC[C@H](CC3)[C@H]2C1=O [Compound T44] | 70 | 0 | 20 | 100 | 90 | 80
CCc1ccc(-c2ccc(Cl)nc2Cl)cc1C1=C(O)[C@H]2[C@H]3CC[C@H](C3)[C@H]2C1=O [Compound T37] | 90 | 50 | 70 | 90 | 70 | 0
CCc1ccc(-c2ccc(Cl)cc2F)cc1C1=C(O)[C@H]2[C@H]3CC[C@H](C3)[C@H]2C1=O (racemic) [Compound T28, rac-(3aR,4R,7S,7aS)-2-(4′-chloro-4-ethyl-2′-fluorobiphenyl-3-yl)-hexahydro-4,7-methanoindene-1,3-dione] | 100 | 60 | 90 | 90 | 30 | 10
CCc1ccc(-c2ccc(Cl)cc2)cc1C1=C(O)[C@H]2[C@H]3CC[C@H](CC3)[C@H]2C1=O (racemic) [Compound T3, rac-(3aR,7aS)-2-(4′-chloro-4-ethylbiphenyl-3-yl)hexahydro-4,7-ethanoindene-1,3-dione] | 100 | 70 | 70 | 100 | 100 | 90
CCc1ccc(-c2cc(Cl)sc2Cl)cc1C1=C(O)[C@H]2[C@H]3CC[C@H](CC3)[C@H]2C1=O [Compound T15] | 30 | 0 | 0 | 80 | 40 | 30
CCc1ccc(-c2ccc(Cl)c(C(F)(F)F)c2)cc1C1=C(O)[C@H]2[C@H]3CC[C@H](CC3)[C@H]2C1=O [Compound T16] | 100 | 60 | 20 | 30 | 0 | 0
CCc1ccc(-c2c(F)cc(Cl)cc2F)cc1C1=C(O)[C@H]2[C@H]3CC[C@H](CC3)[C@H]2C1=O [Compound T20] | 100 | 100 | 100 | 100 | 100 | 100
CCc1ccc(-c2ccc(Cl)s2)cc1C1=C(O)[C@H]2[C@H]3CC[C@H](C3)[C@H]2C1=O [Compound T34] | 100 | 30 | 40 | 90 | 60 | 80
CCc1ccc(-c2ccc(Cl)c(Cl)c2)cc1C1=C(O)[C@H]2[C@H]3CC[C@H](C3)[C@H]2C1=O [Compound T31] | 80 | 20 | 70 | 100 | 60 | 70
CCc1ccc(-c2ccc(Cl)c(OC)c2)cc1C1=C(O)[C@H]2[C@H]3CC[C@H](CC3)[C@H]2C1=O [Compound T14] | 100 | 80 | 70 | 90 | 0 | 0
